In PMC8745332, “Synthesis, Molecular Docking and Biological Characterization of Pyrazine Linked 2-Aminobenzamides as New Class I Selective Histone Deacetylase (HDAC) Inhibitors with Anti-Leukemic Activity” (International Journal of Molecular Sciences, 2021):

Columns and labels:
human HDAC1 = target: T1, human HDAC1 (Homo sapiens, UniProt Q13547); test: In vitro HDAC1 inhibition assay, fluorogenic p53 peptide Ac-RHKK(Acetyl)-AMC; type: biochemical; conditions: for IC50: 10 nM HDAC1, 20 µM substrate, 90 min, 37 °C; for inhibition at 1 µM: read-out: HDAC1 % inhibition @ 1 µM; for inhibition at 2 µM: read-out: HDAC1 % inhibition @ 2 µM
T1 construct: purchased ENZO Life Sciences AG (Lausen, CH)
Procedure: (§1) Recombinant human HDAC1, HDAC2, and HDAC3/NCOR1 were purchased from ENZO Life Sciences AG (Lausen, CH). Recombinant human HDAC 4, HDAC5, HDAC7, HDAC9 and HDAC11 were produced by Barinka lab in Prague, as described before. Recombinant human HDAC8 was produced by Romier et al. (IGBMC, Univ. Strasbourg), as described in [55].
(§2) The in vitro testing on recombinant HDACs 1-3 were performed with a fluorogenic peptide derived from p53 (Ac-RHKK(Acetyl)-AMC). The measurements were performed in an assay buffer (50 mM Hepes, 150 mM NaCl, 5 mM MgCl2, 1 mM TCEP and 0.2 mg/mL BSA, pH 7.4 adjusted with NaOH) at 37 °C. Inhibitors at different concentrations were incubated with 10 nM HDAC1, 3 nM HDAC2 or 3 nM HDAC3 (final concentration) for at least 5 min. The reaction was started with the addition of the fluorogenic substrate (20 µM final concentration) and incubated for 30 min for HDAC2 and HDAC3 and 90 min for HDAC1. The reaction was stopped with a solution of 1 mg/mL trypsin and 20 µM SAHA in 1 mM HCl and incubated for 1 h at 37 °C. […] The received fluorescence intensities were normalized with uninhibited reaction as 100% and the reaction without enzyme as 0%. A nonlinear regression analysis was done to determine the IC50 value.

human HDAC2 = target: T2, human HDAC2 (Homo sapiens, UniProt Q92769); test: In vitro HDAC2 inhibition assay, fluorogenic p53 peptide Ac-RHKK(Acetyl)-AMC; type: biochemical; conditions: for IC50: 3 nM HDAC2, 20 µM substrate, 30 min, 37 °C; for inhibition at 1 µM: read-out: HDAC2 % inhibition @ 1 µM; for inhibition at 2 µM: read-out: HDAC2 % inhibition @ 2 µM
T2 construct: purchased ENZO Life Sciences AG (Lausen, CH)
Procedure: as §1, §2

human HDAC3/NCOR1 = target: T3, human HDAC3/NCOR1 (Homo sapiens, UniProt O15379); test: In vitro HDAC3 inhibition assay, fluorogenic p53 peptide Ac-RHKK(Acetyl)-AMC; type: biochemical; conditions: for IC50: 3 nM HDAC3, 20 µM substrate, 30 min, 37 °C; for inhibition at 1 µM: read-out: HDAC3 % inhibition @ 1 µM; for inhibition at 2 µM: read-out: HDAC3 % inhibition @ 2 µM
T3 construct: purchased ENZO Life Sciences AG (Lausen, CH)
Procedure: as §1, §2

in vitro = conditions: human, HEK293 cells
Procedure: The cells were incubated for 48 h with the HDACi at a concentration of 50 µM, and cell viability was determined by the Alamar Blue assay.
To determine the cytotoxicity of the developed compounds on the human epithelial kidney, cell line HEK293 was used. HEK293 cells (DSMZ Braunschweig, ACC305) were incubated at 37 °C in a humidified incubator with 5% CO2 in Dulbecco’s Modified Eagle Medium (DMEM) supplemented with 10% FCS and 5 mM glutamine. Cells were seeded out at 1.5 x 10^3 cells per well in a 96-well cell culture plate (TPP, Switzerland). The compounds to be tested were added immediately to the medium at 50 µM. After 24 h, Alamar Blue reagent (Invitrogen, CA) was added according to the manufacturer’s instructions and incubated again for 21 h before samples were analyzed. Detection of viable cells which convert the resazurine reagent into the highly fluorescent resorufin was performed by using a FLUOstarOPTIMA microplate reader (BMG Labtec) with the following filter set: Ex 530 nm/Em 590 nm. Measurements were performed in triplicate and data are means with standard deviation <12%.

human HDAC8 = target: T4, human HDAC8 (Homo sapiens, UniProt Q9BY41); test: HDAC8 homogenous fluorescence assay with ZMAL substrate; type: biochemical; conditions: read-out: HDAC8 (% Inhib.)
T4 construct: made in house
T4 sequence (Q9BY41 1-377): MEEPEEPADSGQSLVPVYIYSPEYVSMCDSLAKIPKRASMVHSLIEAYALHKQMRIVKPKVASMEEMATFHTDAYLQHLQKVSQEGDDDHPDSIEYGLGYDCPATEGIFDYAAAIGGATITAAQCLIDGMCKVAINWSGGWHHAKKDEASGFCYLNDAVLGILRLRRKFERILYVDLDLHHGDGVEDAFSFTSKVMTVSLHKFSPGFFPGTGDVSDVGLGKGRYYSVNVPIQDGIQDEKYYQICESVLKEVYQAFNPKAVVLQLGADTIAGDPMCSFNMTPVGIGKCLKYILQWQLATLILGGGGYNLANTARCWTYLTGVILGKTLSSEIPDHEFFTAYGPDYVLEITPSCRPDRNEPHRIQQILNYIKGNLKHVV
Procedure: as §1
Fluorescence intensity was measured at an excitation wavelength of 390 nm and an emission wavelength of 460 nm in a microtiter plate reader (BMG Polarstar).

T2 sequence (Q92769 whole entry): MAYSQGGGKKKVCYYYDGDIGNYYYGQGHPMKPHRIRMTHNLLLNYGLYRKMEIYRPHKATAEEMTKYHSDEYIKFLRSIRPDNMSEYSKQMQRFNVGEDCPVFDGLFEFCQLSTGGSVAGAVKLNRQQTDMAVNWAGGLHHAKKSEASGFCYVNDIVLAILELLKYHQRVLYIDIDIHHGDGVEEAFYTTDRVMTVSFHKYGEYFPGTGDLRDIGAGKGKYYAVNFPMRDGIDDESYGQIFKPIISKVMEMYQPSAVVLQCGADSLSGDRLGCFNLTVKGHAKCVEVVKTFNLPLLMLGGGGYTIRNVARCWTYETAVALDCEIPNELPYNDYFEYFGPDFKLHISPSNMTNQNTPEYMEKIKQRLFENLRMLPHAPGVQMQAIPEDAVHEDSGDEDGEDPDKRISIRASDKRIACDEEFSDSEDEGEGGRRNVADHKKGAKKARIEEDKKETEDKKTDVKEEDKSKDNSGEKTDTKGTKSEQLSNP
T3 sequence (O15379 whole entry): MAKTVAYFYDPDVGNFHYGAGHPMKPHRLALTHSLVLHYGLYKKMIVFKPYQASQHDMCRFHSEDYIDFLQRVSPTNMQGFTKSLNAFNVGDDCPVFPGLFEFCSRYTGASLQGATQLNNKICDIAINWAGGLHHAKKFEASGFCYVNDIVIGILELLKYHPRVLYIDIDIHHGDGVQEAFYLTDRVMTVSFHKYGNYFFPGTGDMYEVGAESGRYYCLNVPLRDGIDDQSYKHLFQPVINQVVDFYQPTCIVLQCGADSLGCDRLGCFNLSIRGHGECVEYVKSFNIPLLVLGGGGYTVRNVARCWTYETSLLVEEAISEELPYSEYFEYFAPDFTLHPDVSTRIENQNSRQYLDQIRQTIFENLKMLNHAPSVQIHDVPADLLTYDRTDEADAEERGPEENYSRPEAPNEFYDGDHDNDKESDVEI
T3 sequence (O75376 395-489 partner limits assumed): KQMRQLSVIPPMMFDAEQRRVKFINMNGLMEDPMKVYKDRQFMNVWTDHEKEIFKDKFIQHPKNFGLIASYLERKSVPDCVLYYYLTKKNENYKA
T1 sequence (Q13547 whole entry): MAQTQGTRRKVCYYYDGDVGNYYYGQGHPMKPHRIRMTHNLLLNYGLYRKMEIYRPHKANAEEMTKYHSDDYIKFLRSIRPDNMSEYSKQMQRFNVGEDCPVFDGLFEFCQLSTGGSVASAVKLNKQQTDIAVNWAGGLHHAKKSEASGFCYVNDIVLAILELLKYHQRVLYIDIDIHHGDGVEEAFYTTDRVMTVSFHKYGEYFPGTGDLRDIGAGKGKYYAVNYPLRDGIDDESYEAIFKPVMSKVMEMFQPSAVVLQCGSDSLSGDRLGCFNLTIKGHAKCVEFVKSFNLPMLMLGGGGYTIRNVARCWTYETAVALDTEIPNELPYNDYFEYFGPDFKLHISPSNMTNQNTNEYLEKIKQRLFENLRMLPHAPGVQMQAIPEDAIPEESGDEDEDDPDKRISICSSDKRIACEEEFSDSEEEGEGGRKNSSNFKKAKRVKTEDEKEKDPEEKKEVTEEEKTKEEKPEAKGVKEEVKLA

Row | SMILES | IC50 (human HDAC1) | IC50 (human HDAC2) | IC50 (human HDAC3/NCOR1) | inhibition at 1 µM (human HDAC3/NCOR1) | inhibition at 1 µM (human HDAC8) | inhibition at 1 µM (human HDAC1) | inhibition at 1 µM (human HDAC2) | inhibition at 2 µM (human HDAC1) | inhibition at 2 µM (human HDAC2) | inhibition at 2 µM (human HDAC3/NCOR1) | viability at 48 h, 50 µM (in vitro)
1 | Cn1cc(CCN2CCN(c3cnc(C(=O)Nc4cc(F)ccc4N)cn3)CC2)c2ccccc21 [23c, N-(2-Amino-5-fluorophenyl)-5-(4-(2-(1-methyl-1H-indol-3-yl)ethyl)piperazin-1-yl)pyrazine-2-carboxamide] | 0.33 ± 0.02 µM | 1.37 ± 0.08 µM | 0.59 ± 0.04 µM | – | – | – | – | – | – | – | 55.7%
2 | Nc1ccc(-c2ccc(F)cc2)cc1NC(=O)c1cnc(N2CCN(CCc3c[nH]c4ccccc34)CC2)cn1 [21b, 5-(4-(2-(1H-indol-3-yl)ethyl)piperazin-1-yl)-N-(4-amino-4’-fluoro-[1,1’-biphenyl]-3-yl)pyrazine-2-carboxamide] | 0.7 ± 0.08 µM | 0.77 ± 0.06 µM | – | 0% | 0% | – | – | – | – | – | 71%
3 | Cn1cc(CN2CCN(c3cnc(C(=O)Nc4ccccc4N)cn3)CC2)c2ccccc21 [19k, N-(2-aminophenyl)-5-(4-((1-methyl-1H-indol-3-yl)methyl)piperazin-1-yl)pyrazine-2-carboxamide] | 0.14 ± 0.02 µM | 0.56 ± 0.04 µM | 0.59 ± 0.03 µM | – | 0% | – | – | – | – | – | 71.4%
4 | Cn1cc(CN2CCN(c3ncc(C(=O)Nc4ccccc4N)cn3)CC2)c2ccccc21 [19j, N-(2-aminophenyl)-2-(4-((1-methyl-1H-indol-3-yl)methyl)piperazin-1-yl)pyrimidine-5-carboxamide] | 0.45 ± 0.06 µM | 0.93 ± 0.04 µM | 1.75 ± 0.06 µM | – | 0% | – | – | – | – | – | 62.5%
5 | CN1CCN(c2ncc(C(=O)Nc3ccccc3N)cn2)CC1 [19n, N-(2-aminophenyl)-2-(4-methylpiperazin-1-yl)pyrimidine-5-carboxamide] | – | – | – | 13% | – | 5% | 7% | – | – | – | –
6 | Nc1cc(Cl)ccc1NC(=O)c1cnc(N2CCN(CCc3c[nH]c4ccccc34)CC2)cn1 [19i, 5-(4-(2-(1H-indol-3-yl)ethyl)piperazin-1-yl)-N-(2-amino-4-chlorophenyl)pyrazine-2-carboxamide] | 3 ± 0.2 µM | 2.7 ± 0.2 µM | 1.9 ± 0.1 µM | – | – | – | – | – | – | – | 47.5%
7 | Nc1cc(F)c(F)cc1NC(=O)c1cnc(N2CCN(CCc3c[nH]c4ccccc34)CC2)cn1 [19h] | 0.81 ± 0.07 µM | 0.74 ± 0.03 µM | 0.57 ± 0.02 µM | – | – | – | – | – | – | – | 54.5%
8 | Nc1ccccc1NC(=O)c1cnc(N2CCN(Cc3ccccn3)CC2)nc1 [19c, N-(2-aminophenyl)-2-(4-(pyridin-2-yl-methyl)piperazin-1-yl)pyrimidine-5-carboxamide] | – | – | – | – | 0% | – | – | 33.9% | 20.1% | 26.8% | 78.7%
9 | Cn1cc(CN2CCN(c3cnc(C(=O)Nc4cc(F)c(F)cc4N)cn3)CC2)c2ccccc21 [19l] | 0.29 ± 0.03 µM | 0.56 ± 0.02 µM | 0.81 ± 0.05 µM | – | – | – | – | – | – | – | 20.1%
10 | Nc1ccccc1NC(=O)c1cnc(N2CCN(CCc3ccc(Cl)cc3)CC2)cn1 [19b, N-(2-Aminophenyl)-5-(4-(4-chlorophenethyl)piperazin-1-yl)pyrazine-2-carboxamide] | – | – | – | – | 3.4% | – | – | 25.8% | 30.3% | 65.2% | 78.6%
11 | Nc1ccccc1NC(=O)c1cnc(N2CCN(CCc3ccccc3)CC2)cn1 [19a, N-(2-Aminophenyl)-5-(4-phenethylpiperazin-1-yl)pyrazine-2-carboxamide] | 0.51 ± 0.05 µM | 0.8 ± 0.07 µM | 1.12 ± 0.07 µM | – | 0% | – | – | – | – | – | 73.1%
12 | Nc1ccc(-c2ccccc2F)cc1NC(=O)c1cnc(N2CCN(CCc3c[nH]c4ccccc34)CC2)cn1 [21c, 5-(4-(2-(1H-indol-3-yl)ethyl)piperazin-1-yl)-N-(4-amino-2’-fluoro-[1,1’-biphenyl]-3-yl)pyrazine-2-carboxamide] | 0.76 ± 0.07 µM | 0.76 ± 0.04 µM | 15 ± 1 µM | – | 0% | – | – | – | – | – | 72.3%
13 | Cn1cc(CN2CCN(c3cnc(C(=O)Nc4cc(F)ccc4N)cn3)CC2)c2ccccc21 [23b, 4-(5-((2-Amino-5-fluorophenyl)carbamoyl)pyrazin-2-yl)-1-((1-methyl-1H-indol-3-yl)methyl)piperazin-1-ium chloride] | 0.27 ± 0.03 µM | 0.5 ± 0.03 µM | 0.5 ± 0.02 µM | – | 38% | – | – | – | – | – | 58.7%
14 | CN1CCN(c2cnc(C(=O)Nc3ccccc3N)cn2)CC1 [19o, N-(2-aminophenyl)-5-(4-methylpiperazin-1-yl)pyrazine-2-carboxamide] | – | – | – | 30% | – | 27% | 15% | – | – | – | –
15 | Nc1ccccc1NC(=O)c1cnc(N2CCN(Cc3ccccn3)CC2)cn1 [19d, N-(2-Aminophenyl)-5-(4-(pyridin-2-ylmethyl)piperazin-1-yl)pyrazine-2-carboxamide] | 0.52 ± 0.07 µM | 1.43 ± 0.08 µM | 1.06 ± 0.04 µM | – | 0% | – | – | – | – | – | 67.7%
16 | Cn1cc(CCN2CCN(c3cnc(C(=O)Nc4ccc(F)cc4N)cn3)CC2)c2ccccc21 [19m, N-(2-Amino-4-fluorophenyl)-5-(4-(2-(1-methyl-1H-indol-3-yl)ethyl)piperazin-1-yl)pyrazine-2-carboxamide] | 0.4 ± 0.06 µM | 1.48 ± 0.19 µM | 0.4 ± 0.02 µM | – | – | – | – | – | – | – | 52.5%
17 | Nc1cc(F)ccc1NC(=O)c1cnc(N2CCNCC2)cn1 [23a, N-(2-Amino-4-fluorophenyl)-5-(piperazin-1-yl)pyrazine-2-carboxamide] | 3.3 ± 0.18 µM | 2.2 ± 0.2 µM | 0.4 ± 0.01 µM | – | 0% | – | – | – | – | – | 67%

More lines, main results first:

Row | IC50 (human HDAC1) | IC50 (human HDAC2) | IC50 (human HDAC3/NCOR1) | inhibition at 1 µM (human HDAC3/NCOR1) | inhibition at 1 µM (human HDAC8) | inhibition at 1 µM (human HDAC1) | inhibition at 1 µM (human HDAC2) | inhibition at 2 µM (human HDAC1) | inhibition at 2 µM (human HDAC2) | inhibition at 2 µM (human HDAC3/NCOR1) | SMILES | viability at 48 h, 50 µM (in vitro)
18 | 4.3 ± 0.3 µM | 4.2 ± 0.1 µM | 1.6 ± 0.1 µM | – | – | – | – | – | – | – | Nc1cc(F)c(F)cc1NC(=O)c1cnc(N2CCNCC2)cn1 [25b, N-(2-amino-4,5-difluorophenyl)-5-(piperazin-1-yl)pyrazine-2-carboxamide] | 83.7%
19 | – | – | – | 0% | – | 0% | 0% | – | – | – | Cc1ccc(NC(=O)c2cnc(N3CCNCC3)cn2)c(N)c1 [27b, N-(2-amino-4-methylphenyl)-5-(piperazin-1-yl)pyrazine-2-carboxamide] | –
20 | – | – | – | 0% | – | 0% | 0% | – | – | – | Nc1ccc(C(F)(F)F)cc1NC(=O)c1cnc(N2CCNCC2)cn1 [27a, N-(2-amino-5-(trifluoromethyl)phenyl)-5-(piperazin-1-yl)pyrazine-2-carboxamide] | –
21 | 0.18 ± 0.01 µM | 0.26 ± 0.07 µM | 12 ± 1 µM | – | – | – | – | – | – | – | CN1CCN(c2cnc(C(=O)Nc3cc(-c4ccccc4F)ccc3N)cn2)CC1 [29d, N-(4-amino-2’-fluoro-[1,1’-biphenyl]-3-yl)-5-(4-methylpiperazin-1-yl)pyrazine-2-carboxamide] | 54%
22 | 20 ± 1 µM | 14 ± 2 µM | 14 ± 1 µM | – | – | – | – | – | – | – | COc1ccc(NC(=O)c2cnc(N3CCNCC3)cn2)c(N)c1 [27c, N-(2-amino-4-methoxyphenyl)-5-(piperazin-1-yl)pyrazine-2-carboxamide] | –
23 | – | – | 8.7 ± 0.4 µM | – | – | 0% | 0% | – | – | – | Nc1cc(Cl)ccc1NC(=O)c1cnc(N2CCNCC2)cn1 [25a, N-(2-amino-4-chlorophenyl)-5-(piperazin-1-yl)pyrazine-2-carboxamide] | –
24 | 0.16 ± 0.03 µM | 0.34 ± 0.01 µM | 6.7 ± 0.5 µM | – | – | – | – | – | – | – | Nc1ccc(-c2ccc(F)cc2)cc1NC(=O)c1cnc(N2CCNCC2)cn1 [29c, N-(4-amino-4’-fluoro-[1,1’-biphenyl]-3-yl)-5-(piperazin-1-yl)pyrazine-2-carbox-amide] | 2.2%
25 | 0.11 ± 0.01 µM | 0.18 ± 0.06 µM | 4.4 ± 0.1 µM | – | – | – | – | – | – | – | CN1CCN(c2cnc(C(=O)Nc3cc(-c4ccsc4)ccc3N)cn2)CC1 [29a, N-(2-amino-5-(thiophen-3-yl)phenyl)-5-(4-methylpiperazin-1-yl)pyrazine-2-carboxamide] | 65.8%
